This passage reports IC50 results from patent US12570655B2, “Cysteine covalent modifiers of AKT1 and uses thereof” (Terremoto Biosciences, Inc., priority 2023, dated 2026).

Holding throughout (format): cell-based
Assay [1] addresses T1, AKT1 WT (Homo sapiens, UniProt P31749).
T1 construct: expressed in transfected cells; host or cells: HEK293
Put plainly: Live cell AKT1 WT target engagement by NanoBRET competitive probe displacement. As to conditions: HEK293 cells transfected with kinase-NanoLuciferase fusion, 2 h at 37° C. Summed up: (§1)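 HEK293 cells transiently expressing kinase–NanoLuciferase fusions (overnight transfection) were treated with serial compound dilutions plus fluorescent ATP-competitive tracer at ~EC50 concentration for 2 h at 37 °C. BRET ratio E600/E460 measured after substrate and extracellular luciferase inhibitor addition; IC50 from log(inhibitor)–response Hill fit.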

Assay [2] deals with LAPC4 prostate cancer cells. Put plainly: Antiproliferative effects in LAPC4 cells (CellTiter Glo). To be noted: LAPC4 cells (AKT1 E17K allele), read-out: LAPC4 proliferation IC50. A digest of the protocol: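 LAPC4 cells were cultured in IMDM with 12% FBS and 1% P/S, seeded at 1,000 cells/well and exposed to compound dilutions in DMSO. After 72 h, intracellular ATP was measured by CellTiter Glo luminescence, and IC50 values came from a log(inhibitor) vs. response Hill fit.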
For orientation: Cellular ATP, detected with luciferase, serves as a proxy for viable cell number.

The target of assay [3] is T2, AKT2 (Homo sapiens, UniProt P31751).
T2 construct: expressed in transfected cells; host or cells: HEK293
T2 sequence (P31751 whole entry): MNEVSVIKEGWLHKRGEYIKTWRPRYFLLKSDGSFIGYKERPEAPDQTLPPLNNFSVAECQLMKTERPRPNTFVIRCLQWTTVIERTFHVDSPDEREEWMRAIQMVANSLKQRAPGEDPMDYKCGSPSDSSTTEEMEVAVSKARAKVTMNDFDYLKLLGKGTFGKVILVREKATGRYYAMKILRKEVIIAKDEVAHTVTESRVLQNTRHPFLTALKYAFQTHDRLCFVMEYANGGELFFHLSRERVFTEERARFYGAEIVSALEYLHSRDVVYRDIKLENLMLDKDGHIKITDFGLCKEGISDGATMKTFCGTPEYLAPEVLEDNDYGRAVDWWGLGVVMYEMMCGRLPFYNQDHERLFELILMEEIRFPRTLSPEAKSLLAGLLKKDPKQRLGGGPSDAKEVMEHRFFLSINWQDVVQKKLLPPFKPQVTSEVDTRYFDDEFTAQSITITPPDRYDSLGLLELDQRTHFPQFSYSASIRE
Description: Live cell AKT2 target engagement by NanoBRET competitive probe displacement. As to conditions: HEK293 cells transfected with kinase-NanoLuciferase fusion, 2 h at 37° C. A digest of the protocol:
as §1
For orientation: BRET reads energy transfer from a luciferase to a nearby fluorophore.

Assay [4] addresses T3, AKT1 E17K (Homo sapiens, UniProt P31749, E17K).
T3 construct: expressed in transfected cells; host or cells: HEK293
Put plainly: Live cell AKT1 E17K target engagement by NanoBRET competitive probe displacement. To be noted: HEK293 cells transfected with kinase-NanoLuciferase fusion, 2 h at 37° C. A digest of the protocol: as §1

Where two headings read alike, the source gives them in different places.

T1 sequence (P31749 whole entry): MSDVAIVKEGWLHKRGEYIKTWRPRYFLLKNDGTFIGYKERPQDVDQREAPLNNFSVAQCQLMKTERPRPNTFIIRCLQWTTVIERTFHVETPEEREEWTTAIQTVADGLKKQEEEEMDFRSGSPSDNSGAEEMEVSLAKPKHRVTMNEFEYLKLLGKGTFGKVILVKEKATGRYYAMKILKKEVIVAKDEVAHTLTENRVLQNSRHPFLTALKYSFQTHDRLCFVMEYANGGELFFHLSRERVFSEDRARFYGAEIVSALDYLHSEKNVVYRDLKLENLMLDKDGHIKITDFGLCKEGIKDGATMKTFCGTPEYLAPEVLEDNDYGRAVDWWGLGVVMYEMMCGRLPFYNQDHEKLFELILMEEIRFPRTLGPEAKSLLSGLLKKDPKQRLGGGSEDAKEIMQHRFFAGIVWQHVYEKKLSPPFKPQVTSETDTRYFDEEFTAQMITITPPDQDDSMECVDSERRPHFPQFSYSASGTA
T3 sequence (P31749 whole entry E17K): as the sequence (P31749 whole entry) above, with E17K counted along it

With `C=CC(=O)N1C[C@H]2C[C@@H]1CC2N[C@H]1CCc2cc(-n3c(-c4cccnc4N)nc4ccc(-n5cccn5)nc43)ccc21` (single isomer, unassigned) [Example 137, 1-[(1R,4R,5*)-5-{[(1S)-5-[2-(2-aminopyridin-3-yl)-5-(pyrazol-1-yl)imidazo[4,5-b]pyridin-3-yl]-2,3-dihydro-1H-inden-1-yl]amino}-2-azabicyclo[2.2.1]heptan-2-yl]prop-2-en-1-one], the IC50 in assay [1] came to 14.2 nM; in assay [2] (72 h), 161 nM; in assay [3], 244 nM; in assay [4], 71.6 nM.
Consider `CC#CC(=O)NCc1ccccc1C(=O)N[C@H]1CCc2cc(-n3c(-c4cccnc4N)nc4ccc(-n5cccn5)nc43)ccc21` [Example 267, N-[(1S)-5-[2-(2-aminopyridin-3-yl)-5-(pyrazol-1-yl)imidazo[4,5-b]pyridin-3-yl]-2,3-dihydro-1H-inden-1-yl]-2-(but-2-ynamidomethyl)benzamide], for which the IC50 in assay [1] came out at 86.4 nM; in assay [2] (Homo sapiens, LAPC4, 72 h), 335 nM; in assay [3] it was 53.6 nM; in assay [4], 5.9 nM.
In the case of `C=CC(=O)N1CCOCC(N[C@H]2CCc3cc(-n4c(-c5cccnc5N)nc5ccc(-n6cccn6)nc54)ccc32)C1` (single isomer, unassigned) [Example 54, 1-((*)-6-(((S)-5-(2-(2-aminopyridin-3-yl)-5-(1H-pyrazol-1-yl)-3H-imidazo[4,5-b]pyridin-3-yl)-2,3-dihydro-1H-inden-1-yl)amino)-1,4-oxazepan-4-yl)prop-2-en-1-one], the IC50 in assay [1] was 27.1 nM; in assay [2] (72 h), 107 nM; in assay [3], 292 nM; in assay [4] it was 58.5 nM.
`C=CC(=O)N1CCC(N[C@H]2CCc3cc(-n4c(-c5cccnc5N)nc5ccc(-n6ccc(C7CC7)n6)nc54)ccc32)CC1` [Example 208, (S)-1-(4-((5-(2-(2-aminopyridin-3-yl)-5-(3-cyclopropyl-1H-pyrazol-1-yl)-3H-imidazo[4,5-b]pyridin-3-yl)-2,3-dihydro-1H-inden-1-yl)amino)piperidin-1-yl)prop-2-en-1-one]: the IC50 was 77.8 nM in assay [1]; 69.8 nM in assay [2] (Homo sapiens, LAPC4, 72 h); 26.1 nM in assay [3]; 5.74 nM in assay [4].
As to `C=CC(=O)N1CCC(N[C@H]2CCc3cc(-n4c(-c5ccccc5)nc5ccc(-n6cccn6)nc54)ccc32)CC1` [Example 152, (S)-1-(4-((5-(2-phenyl-5-(1H-pyrazol-1-yl)-3H-imidazo[4,5-b]pyridin-3-yl)-2,3-dihydro-1H-inden-1-yl)amino)piperidin-1-yl)prop-2-en-1-one], the IC50 in assay [1] was over 1000 nM; in assay [2] (Homo sapiens, LAPC4, 72 h), over 10000 nM; in assay [3] it was over 10000 nM; in assay [4] it was over 1000 nM.
Regarding `C=CC(=O)N1CCC(N[C@H]2CCc3cc(-n4c(-c5cccnc5)nc5ccc(-n6cccn6)nc54)ccc32)CC1` [Example 153, (S)-1-(4-((5-(5-(1H-pyrazol-1-yl)-2-(pyridin-3-yl)-3H-imidazo[4,5-b]pyridin-3-yl)-2,3-dihydro-1H-inden-1-yl)amino)piperidin-1-yl)prop-2-en-1-one], the IC50 in assay [1] was 26.9 nM; in assay [2] (Homo sapiens, LAPC4, 72 h) it was 362 nM; in assay [3], 1080 nM; in assay [4] it was 168 nM.
In the case of `C=CC(=O)N1CCC(F)(CN[C@H]2CCc3cc(-n4c(-c5cccnc5N)nc5ccc(-n6cccn6)nc54)ccc32)CC1` [Example 184, (S)-1-(4-(((5-(2-(2-aminopyridin-3-yl)-5-(1H-pyrazol-1-yl)-3H-imidazo[4,5-b]pyridin-3-yl)-2,3-dihydro-1H-inden-1-yl)amino)methyl)-4-fluoropiperidin-1-yl)prop-2-en-1-one], the IC50 in assay [1] is 104 nM; in assay [2] (Homo sapiens, LAPC4, 72 h) it was 184 nM; in assay [3] it was 27.2 nM; in assay [4] it was 17.8 nM.
For the compound `C=CC(=O)N1CC2CC1CCC2N[C@H]1CCc2cc(-n3c(-c4cccnc4N)nc4ccc(-n5cccn5)nc43)ccc21` (stereo partly drawn) [Example 294, 1-(2-(((S)-5-(2-(2-aminopyridin-3-yl)-5-(1H-pyrazol-1-yl)-3H-imidazo[4,5-b]pyridin-3-yl)-2,3-dihydro-1H-inden-1-yl)amino)-6-azabicyclo[3.2.1]octan-6-yl)prop-2-en-1-one], the IC50 in assay [1] came to 301 nM; in assay [2] (Homo sapiens, LAPC4, 72 h) it was 217 nM; in assay [3], 56.7 nM; in assay [4], 28.6 nM.
Turning to `C=CC(=O)N1CCC(N[C@@H]2c3ccc(-n4c(-c5cccnc5N)nc5ccc(-n6cccn6)nc54)cc3CC2F)C[C@H]1C` (single isomer, unassigned) [Example 146, 1-((2R,4*)-4-(((1R,2*)-5-(2-(2-aminopyridin-3-yl)-5-(1H-pyrazol-1-yl)-3H-imidazo[4,5-b]pyridin-3-yl)-2-fluoro-2,3-dihydro-1H-inden-1-yl)amino)-2-methylpiperidin-1-yl)prop-2-en-1-one], the IC50 is 22.9 nM in assay [1], 448 nM in assay [2] (72 h), 1580 nM in assay [3] and 78.4 nM in assay [4].
Turning to `C=CC(=O)N1CCC2(CC1)CC(N[C@H]1CCc3cc(-n4c(-c5cccnc5N)nc5ccc(-n6cccn6)nc54)ccc31)C2` [Example 30, 1-(2-{[(1S)-5-[2-(2-aminopyridin-3-yl)-5-(pyrazol-1-yl)imidazo[4,5-b]pyridin-3-yl]-2,3-dihydro-1H-inden-1-yl]amino}-7-azaspiro[3.5]nonan-7-yl)prop-2-en-1-one], the IC50 in assay [1] is 296 nM; in assay [2] (Homo sapiens, LAPC4, 72 h) it was 2600 nM; in assay [3], 4830 nM; in assay [4], over 1000 nM.
Take `C=CC(=O)Nc1cnccc1C(=O)N[C@H]1CCc2cc(-n3c(-c4cccnc4N)nc4ccc(-n5cccn5)nc43)ccc21` [Example 41, N-[(1S)-5-[2-(2-aminopyridin-3-yl)-5-(pyrazol-1-yl)imidazo[4,5-b]pyridin-3-yl]-2,3-dihydro-1H-inden-1-yl]-3-(prop-2-enamido)pyridine-4-carboxamide]: the IC50 in assay [1] was 305 nM; in assay [2] (Homo sapiens, LAPC4, 72 h) it was 9840 nM; in assay [3], 5060 nM; in assay [4], over 1000 nM.
As to `C=CC(=O)N1CCC(N[C@H]2CCc3cc(-n4c(-c5cccnc5N)nc5ccc(-c6ccccn6)nc54)ccc32)CC1` [Example 207, (S)-1-(4-((5-(2-(2-aminopyridin-3-yl)-5-(pyridin-2-yl)-3H-imidazo[4,5-b]pyridin-3-yl)-2,3-dihydro-1H-inden-1-yl)amino)piperidin-1-yl)prop-2-en-1-one], the IC50 in assay [1] is 48.8 nM; in assay [2] (Homo sapiens, LAPC4, 72 h), 114 nM; in assay [3], 35.2 nM; in assay [4], 7.07 nM.
Take `C=CC(=O)N1CCC(N[C@H]2CCc3cc(-n4c(-c5cccnc5N)nc5ccc(C6CC6)nc54)ccc32)C(C)C1` (single isomer, unassigned) [Example 230, 1-((3*,4*)-4-(((S)-5-(2-(2-aminopyridin-3-yl)-5-cyclopropyl-3H-imidazo[4,5-b]pyridin-3-yl)-2,3-dihydro-1H-inden-1-yl)amino)-3-methylpiperidin-1-yl)prop-2-en-1-one]: the IC50 in assay [1] was found to be 890 nM; in assay [2] (72 h), 600 nM; in assay [3] it was 346 nM; in assay [4], 41.9 nM.
For `C=CC(=O)N1CCC(c2cn([C@H]3CCc4cc(-n5c(-c6cccnc6N)nc6ccc(-n7cccn7)nc65)ccc43)nn2)CC1` [Example 169, 1-(4-{1-[(1S)-5-[2-(2-aminopyridin-3-yl)-5-(pyrazol-1-yl)imidazo[4,5-b]pyridin-3-yl]-2,3-dihydro-1H-inden-1-yl]-1,2,3-triazol-4-yl}piperidin-1-yl)prop-2-en-1-one], the IC50 in assay [1] was determined as 593 nM; in assay [2] (Homo sapiens, LAPC4, 72 h), 565 nM; in assay [3], 115 nM; in assay [4], 53.7 nM.
Turning to `C=CC(=O)N1CCC(N[C@H]2CCc3cc(-n4c(-c5cccnc5N)nc5cc(C6CC6)cnc54)ccc32)CC1` [Example 199, 1-(4-{[(1S)-5-[2-(2-aminopyridin-3-yl)-6-cyclopropylimidazo[4,5-b]pyridin-3-yl]-2,3-dihydro-1H-inden-1-yl]amino}piperidin-1-yl)prop-2-en-1-one], the IC50 in assay [1] was determined as 603 nM; in assay [2] (Homo sapiens, LAPC4, 72 h), 2380 nM; in assay [3], 802 nM; in assay [4], 67.4 nM.
For `C=CC(=O)Nc1cccc(C)c1C(=O)N[C@H]1CCc2cc(-n3c(-c4cccnc4N)nc4ccc(-n5cccn5)nc43)ccc21` [Example 15, (S)-2-acrylamido-N-(5-(2-(2-aminopyridin-3-yl)-5-(1H-pyrazol-1-yl)-3H-imidazo[4,5-b]pyridin-3-yl)-2,3-dihydro-1H-inden-1-yl)-6-methylbenzamide], the IC50 is 34.3 nM in assay [1]; 366 nM in assay [2] (Homo sapiens, LAPC4, 72 h); 377 nM in assay [3]; 78.7 nM in assay [4].
Regarding `C=C(F)C(=O)NCc1ccccc1C(=O)N[C@H]1CCc2cc(-n3c(-c4cccnc4N)nc4ccc(-n5cccn5)nc43)ccc21` [Example 264, N-[(1S)-5-[2-(2-aminopyridin-3-yl)-5-(pyrazol-1-yl)imidazo[4,5-b]pyridin-3-yl]-2,3-dihydro-1H-inden-1-yl]-2-[(2-fluoroprop-2-enamido)methyl]benzamide], the IC50 turned out to be 937 nM in assay [1]; 1330 nM in assay [2] (Homo sapiens, LAPC4, 72 h); 171 nM in assay [3]; 27.8 nM in assay [4].
